For series [1], the system named is dogs. The note with it: cited from earlier work.
Series [2] has as its system tumors. The note with it: eniluracil with 5-FU, laboratory animals bearing tumors; cited from earlier work.
In series [3] the test system is cancer patients. Put plainly: Clinical trial: 5 mg eniluracil followed 12-24 hours later by 5-FU, neurotoxicity. In kind it is in vivo, human. The conditions noted are these: then 30-160 mg 5-FU 12-24 hours later, 41 patients. On the procedure: Therefore, a clinical trial was initiated wherein cancer patients were administered a 5 mg dose of eniluracil followed by 5-FU at a 30-160 mg dose 12-24 hours later. Unexpectedly, the majority of the 41 patients undergoing this treatment experienced some form of mild to severe neurotoxicity, with the main neurological symptoms being ataxia (an unsteady gait), neuropathy, confusion, dizziness, and slurred speech.
Based on this important finding, a clinical trial was initiated wherein cancer patients were administered a 5 mg dose of eniluracil, which was believed to be sufficient to systemically eliminate DPD activity in the patients. 5-FU was then administered 12-24 hours later at a dose of 30-160 mg. Unexpectedly, however, the majority of the 41 patients undergoing this treatment experienced some form of mild to severe neurotoxicity, with the main neurological symptoms being ataxia (an unsteady gait), neuropathy, confusion, dizziness, and slurred speech.
A clinical trial was initiated based on the important mechanistic findings described in WO 2006/060697. More specifically, cancer patients were administered a 5 mg dose of eniluracil and 12-24 hours thereafter were administered a 30-160 mg dose of 5-FU. […]

Series [4] has as its target T1, DPD (Rattus norvegicus, UniProt O89000).
T1 construct: from tissue; host or cells: rat brain, liver, spleen, intestinal mucosa, lung (in vivo dosing)
T1 sequence (O89000 1-1025): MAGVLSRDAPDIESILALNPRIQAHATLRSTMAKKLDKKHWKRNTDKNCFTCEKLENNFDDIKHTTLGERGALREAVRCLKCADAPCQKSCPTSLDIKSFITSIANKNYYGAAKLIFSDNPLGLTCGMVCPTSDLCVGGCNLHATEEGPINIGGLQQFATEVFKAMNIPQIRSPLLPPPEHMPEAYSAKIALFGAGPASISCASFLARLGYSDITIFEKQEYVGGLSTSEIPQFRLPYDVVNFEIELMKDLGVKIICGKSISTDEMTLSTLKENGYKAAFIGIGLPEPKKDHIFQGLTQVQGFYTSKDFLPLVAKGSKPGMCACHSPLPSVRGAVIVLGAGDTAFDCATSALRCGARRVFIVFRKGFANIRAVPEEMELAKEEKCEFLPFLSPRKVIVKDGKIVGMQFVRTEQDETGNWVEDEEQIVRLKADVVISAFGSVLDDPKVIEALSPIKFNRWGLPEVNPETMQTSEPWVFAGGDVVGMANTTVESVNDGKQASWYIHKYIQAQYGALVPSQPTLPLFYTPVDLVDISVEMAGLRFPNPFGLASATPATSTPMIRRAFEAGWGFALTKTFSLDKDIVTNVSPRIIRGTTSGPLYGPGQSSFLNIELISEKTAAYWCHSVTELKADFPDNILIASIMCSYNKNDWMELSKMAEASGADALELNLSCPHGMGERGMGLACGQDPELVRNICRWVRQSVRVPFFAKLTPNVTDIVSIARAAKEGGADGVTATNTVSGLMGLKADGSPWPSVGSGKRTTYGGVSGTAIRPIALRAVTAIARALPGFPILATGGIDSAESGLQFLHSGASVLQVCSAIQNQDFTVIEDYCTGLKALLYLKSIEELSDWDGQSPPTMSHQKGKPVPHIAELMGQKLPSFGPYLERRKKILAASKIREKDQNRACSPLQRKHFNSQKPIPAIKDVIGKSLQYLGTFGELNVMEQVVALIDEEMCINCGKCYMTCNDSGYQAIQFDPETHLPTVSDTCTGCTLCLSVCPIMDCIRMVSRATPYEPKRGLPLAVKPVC
The note with it: rats; spleen, intestinal mucosa, lung; cited from earlier work.

For series [5] the following is noted: humans; cited from earlier work.
In series [6] the test system is tumor. The conditions noted are these: excess eniluracil present at the time 5-FU is administered; cited from earlier work.
The nature of series [7]: Calculated amount of eniluracil remaining in the body after 10.5 hours. Further details: species or system human. The conditions noted are these: approximately three elimination half-lives. As to the method:
The amounts of eniluracil shown in Table 1 below may be used achieve doses in the 16-20 mg/m^2 range. The calculated amount of eniluracil remaining in the body after 10.5 hours (approximately three elimination half-lives) is also presented. Thus, if the weekly and the 5-day dosing schedules employ doses of 5-FU ranging between about 15-50 mg/m^2, the ratio of eniluracil to 5-FU will always be less than about 1:6 when 5-FU is administered. For example, when the commonly used 25 mg/m^2 dose of 5-FU is administered 10.5 hours after eniluracil, the ratio of eniluracil to 5-FU will be about 1:10 or less.

For series [8], the system named is patients. The conditions noted are these: 20 mg eniluracil before 5-FU; 17 patients; cited from earlier work.
The test system of series [9] is patients with colorectal cancer. The note with it: cited from earlier work.
The target of series [10] is T2, DPD (Homo sapiens, UniProt Q12882).
T2 construct: eliminated greater than 90% of DPD in peripheral blood cells for prolonged periods; from tissue; host or cells: peripheral blood cells of cancer patients
T2 sequence (Q12882 4-1025): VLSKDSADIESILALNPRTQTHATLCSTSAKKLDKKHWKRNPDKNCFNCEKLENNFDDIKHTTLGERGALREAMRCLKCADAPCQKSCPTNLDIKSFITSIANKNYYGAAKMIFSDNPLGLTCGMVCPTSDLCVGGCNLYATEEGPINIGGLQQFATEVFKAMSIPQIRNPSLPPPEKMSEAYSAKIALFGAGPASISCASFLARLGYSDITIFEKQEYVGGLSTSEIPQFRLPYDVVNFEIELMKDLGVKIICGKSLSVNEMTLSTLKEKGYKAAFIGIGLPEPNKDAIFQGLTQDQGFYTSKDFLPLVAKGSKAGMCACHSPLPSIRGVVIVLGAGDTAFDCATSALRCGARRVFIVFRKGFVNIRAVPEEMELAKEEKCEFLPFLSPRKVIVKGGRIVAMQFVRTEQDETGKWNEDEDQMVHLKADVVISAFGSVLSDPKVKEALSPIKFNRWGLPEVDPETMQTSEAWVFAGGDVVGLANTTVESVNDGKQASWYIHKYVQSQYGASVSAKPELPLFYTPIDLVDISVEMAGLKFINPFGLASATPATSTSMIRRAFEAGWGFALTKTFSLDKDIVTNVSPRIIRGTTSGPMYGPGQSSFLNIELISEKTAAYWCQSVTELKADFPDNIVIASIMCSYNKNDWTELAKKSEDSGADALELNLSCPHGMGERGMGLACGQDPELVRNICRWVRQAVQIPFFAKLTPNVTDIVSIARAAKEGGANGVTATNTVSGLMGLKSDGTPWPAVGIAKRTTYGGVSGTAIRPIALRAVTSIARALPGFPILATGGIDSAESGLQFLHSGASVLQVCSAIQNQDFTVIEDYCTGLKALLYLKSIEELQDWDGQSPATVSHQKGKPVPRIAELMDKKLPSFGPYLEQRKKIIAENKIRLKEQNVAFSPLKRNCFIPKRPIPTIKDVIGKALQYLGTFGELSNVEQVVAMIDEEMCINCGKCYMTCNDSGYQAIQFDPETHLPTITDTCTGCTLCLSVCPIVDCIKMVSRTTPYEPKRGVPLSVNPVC
The conditions noted are these: eniluracil 0.74 mg/m^2 (about 1 mg total), for prolonged periods; cited from earlier work.

In series [11] the test system is cancer patients. The conditions noted are these: cited from earlier work.
In series [12] the target is T2, DPD. The conditions noted are these: the two patients with neurotoxicity, 20 mg eniluracil (9.5 and 8.0 mg/m^2); cited from earlier work.
The conditions of series [13]: cited from earlier work; for elimination half-life of 5-FU: Phase I.
In series [14] the test system is tumor. The conditions noted are these: tumor-bearing rats and tissue culture; cited from earlier work.
Series [15] has as its system mice, monkeys, cats, and dogs. The note with it: in vivo; cited from earlier work.

Where two headings read alike, the source gives them in different places.

For `C#Cc1c[nH]c(=O)[nH]c1=O` [eniluracil, 5-ethynyluracil], the neurotoxicity result in [1] (dogs pretreated with eniluracil, high blood levels of 5-FU) is “without any neurotoxicity”. Besides, in [2], the “antitumor efficacy of 5-FU” value is listed as “significantly improved”. The “patients experiencing some form of mild to severe neurotoxicity” value in series [3] is “majority”. Besides, the “dose required to inactivate 50% of DPD in brain relative to liver and other non-nervous tissues” value in series [4] is on record as “approximately six-fold”. Besides, the “elimination half-life for eniluracil” value in series [5] is listed as “about 3.5 hours”. In series [6], the “antitumor activity of 5-FU” value was “significantly diminished”. The “Estimated Amount of Eniluracil remaining 10.5 hr after dosing” value in series [7] (eniluracil dose 25 mg) was 3.1 mg; in series [7] (eniluracil dose 30 mg) it was 3.8 mg; in series [7] (eniluracil dose 40 mg), 5.0 mg; in [7] (eniluracil dose 50 mg), 6.3 mg. Besides, in series [8], the incidence of neurotoxicity is 12%. In addition, the “antitumor benefit versus standard regimen of 5-FU/leucovorin” value in series [9] (10 mg/m^2 eniluracil and 1 mg/m^2 5-FU every 12 hr for 28 days, North American trial) is reported as “less antitumor benefit”. Also, in [9] (eniluracil about 11.5 mg/m^2 every 12 hours), the “total incidence of severe neurotoxicity” value is recorded as 6%. Besides, in series [10], the “DPD eliminated in peripheral blood cells” value was “greater than 90%”. Besides, the toxicity result in series [11] (Phase I clinical trials in cancer patients) is “without causing toxicity”. Moreover, in [11] (doses up to 50 mg per day for seven days), the safety result is “safe”. Also, the “DPD in peripheral blood cells” value in [12] is “completely inactivated”.

Consider `O=c1[nH]cc(F)c(=O)[nH]1` [5-FU, 5-Fluorouracil], for which the neurotoxicity result in [1] (intravenous 5-FU alone, only low blood levels of 5-FU) was “induced seizures, muscle tremors, and ataxia”. Besides, the “elimination half-life of 5-FU” value is 3.5 h in series [13] (after one dose of eniluracil) and “about 10 minutes” in [13] (without eniluracil). The “half-life of 5-FU” value in series [13] (eniluracil 3.7 mg/m^2) was 4.5 to 6.5 h. Besides, the 5-FU elimination half-life in series [13] (with eniluracil) is 4.5 to 6.5 h; in series [13] (without eniluracil), 0.167 to 0.333 h.

With `Nc1nc2c(c(=O)[nH]1)N(C=O)C(CNc1ccc(C(=O)N[C@@H](CCC(=O)O)C(=O)O)cc1)CN2` (stereo partly shown) [Leucovorin], in series [14], the “antitumor efficacy of eniluracil and 5-FU” value is given as “improve the antitumor efficacy”.

Take `NCC(F)C(=O)O` (stereo not drawn) [F-Bal, α-fluoro-β-alanine]: in series [15], the neurotoxicity result is “can cause neurotoxicity”.

The values are drawn from patent US8658618B2, “Methods for preventing or reducing neurotoxicity associated with administering DPD inhibitors in combination with 5-FU and 5-FU prodrugs” (Adherex Technologies, Inc., priority 2009, dated 2014).
